EP4549446A1 (priority 2023, dated 2025)

Legend:
[1] = test system: Nrf2; assay: Nrf2-ARE induction, luciferase assay in AREc32 cells; type: cell-based; conditions: CD: concentration required to double the specific activity of the luciferase gene, 24 h treatment
[2] = test system: AML cell lines; type: cell-based, human
[3] = test system: normal cell subpopulations from healthy donors; assay: Ex vivo cell viability by flow cytometry on normal cells; type: cell-based, human; conditions: normal cell subpopulations from healthy donors including hematopoietic precursor cells, 18 h
Procedure: Primary human cells from healthy donors were used in ex vivo assays. The mononuclear fraction was extracted with Ficoll-Paque by density gradient centrifugation and subsequently differentiated from the other cell populations by flow cytometry using an appropriate combination of antibodies: anti-human CD45-Pacific Blue, CD34-FITC, CD19-APC-H7 (BD Biosciences, San Jose, CA) and CD3-FITC (Invitrogen).
Cell viability and cell lysis were also assessed by annexin V/7-AAD using flow cytometry. Donor cells were analysed using 7-AAD a combination of monoclonal antibodies (anti-CD45-Pacific Blue, anti-CD34-FITC, anti-CD3-FITC, anti-CD19-APC-H7). The cells were acquired with the FACSCanto II flow cytometer (BD Biosciences) and analysed with the Infinicyt™ software (Cytognos, Spain).

[4] = SFNA/αCD association constant by 1H NMR titration in D2O; type: physicochemical; conditions: 298 K, SFNA 2 mM against increasing α-cyclodextrin
Procedure: The preparation of inclusion complexes was carried out by a physical mixture in water between α-cyclodextrin (host) and the sulforaphane analogue (guest; SFNA). The confirmation of complex formation, its stoichiometry, association constant (Kas), and degree of degradation were determined using ^1H NMR spectroscopy.
Determination of the SFNA/αCD association constant. The determination of association constants (Kas, M^-1) for the SFNA/αCD complex was performed through ^1H NMR titration experiments in D2O. The association constants at 298 K were experimentally determined by measuring the changes in chemical shift (Δδ, ppm) of the ^1H NMR signals using fixed solutions of the analogues against increasing concentrations of α-cyclodextrin. In a typical titration experiment, a 2 mM solution of the SFN analogue in D2O was prepared, and a 500 µL aliquot was transferred to the NMR tube, and the initial spectrum was recorded. Furthermore, a solution of a mixture (SFNA at 2 mM/ αCD at 16.11 mM) was prepared and added in 10 µL aliquots to the NMR tube, keeping the analogue concentration constant. The added amounts of α-cyclodextrin were increased until complete complexation of the analogue, and ^1H NMR spectra were recorded after each addition. The mathematical treatment of the curves of chemical shift variations of the analogue proton signals (Δδ) against increasing α-cyclodextrin concentrations using an iterative least-squares fitting procedure allowed for the determination of the Kas values for the analogues (Table 1).

C[S+]([O-])CCCCN=C=S (stereo not shown) [SFN-1, sulforaphane, reference compound]
EC (2-fold) ([1]; read-out: CD ± SEM): 0.44 ± 0.28 µM

CCOP(=O)(OCC)OCCCN=C=S [SFN-10, Diethyl (3-isothiocyanatopropyl) phosphate]
proapoptotic effect on AML cell lines [2]: partially selective proapoptotic effect
viability of normal healthy cells [3]: not affected
Kas [4]: 34,87 M^-1
CD ± SEM [1]: 0.56 ± 0.07 µM

CCOP(=O)(CCCCN=C=S)OCC [SFN-14, Diethyl (4-isothiocyanatobutyl)phosphonate]
proapoptotic effect on AML cell lines [2]: partially selective proapoptotic effect
Kas [4]: 135,95 M^-1

CC(C)OP(=O)(OCCCN=C=S)OC(C)C [SFN-15, Diisopropyl (3-isothiocyanatopropyl) phosphate]
Kas [4]: 101,95 M^-1
CD ± SEM [1]: 0.52 ± 0.08 µM

O=P(OCCCN=C=S)(Oc1ccccc1)Oc1ccccc1 [SFN-16, Diphenyl 3-isothiocyanatopropyl phosphate]
CD ± SEM [1]: 1.55 ± 0.45 µM
